Experimental findings from patent US20050153923A1, “Targeted drug delivery using EphA2 or EphA4 binding moieties” (priority 2003, published 2005) are described below.

In one series the test system is EphA2. Nature of the series: EphA2 expression in MDA-MB-231 cells after antisense transfection (Western blot). The class given is cell-based. Particulars: 2 μg/ml oligonucleotide, 24 hours.
Another series has as its system MDA-MB-231 cells. Nature of the series: Soft agar colonization of MDA-MB-231 cells after antisense transfection. The class given is cell-based. The procedure:
Monolayers of MDA-MB-231 cells were transfected with 2 μg/ml of EphA2 antisense or inverse antisense (IAS) oligonucleotides at 37° C. for 24 hours. […] The membranes were stripped and reprobed with paxillin antibodies as a loading control (B). The relative mobility of molecular mass standards is shown on the left of panels A and B. (C) MDA-MB-231 cell monolayers, treated with antisense oligonucleotides as detailed above, were suspended in soft agar for 7 days before microscopic analysis of colony formation. […] Results are reported as colonies per high-powered field (HPF).
An antisense oligonucleotide-based approach that decreased EphA2 expression in tumor cells independent of EphA2 activation was developed. […] Inverted antisense oligonucleotides (5′-[…]-3′; SEQ ID NO:109) provided a control. The cells were transfected with oligonucleotides (2 μg/ml) using Lipofectamine PLUS Reagent (Life Technologies, Inc.) according to the manufacturer's protocol. Twenty-four hours post-transfection, the cells were divided. Half of the cells were seeded into soft agar, and the remaining cells were extracted and subjected to Western blot analysis.
MDA-MB-231 cells were suspended in soft agar. […] Colony formation was scored microscopically using an Olympus CK-3 inverted phase-contrast microscope outfitted with a 40× objective. Clusters containing at least three cells were scored as a positive. […]

The subject of series [1] is MCF-7^EphA2 cells. Nature of the series: Soft agar colonization of MCF-7^EphA2 cells. The class given is cell-based. Particulars: TAM 1 μM, EA2 10 μg/ml. The procedure: (B) MCF-7 (circles) or MCF-7^EphA2 cells (squares) were implanted into the mammary fatpad (n=15 mice per group) in the presence of supplemental estrogen.
MCF-7^EPhA2 cells were incubated in the presence of 3 μg/ml of EA2 for the time indicated prior to sample extraction and Western blot analyses with an EphA2-specific antibody (D7). (B) The membrane was stripped and re-probed with a β-catenin-specific antibody as a loading control.
(§1) Growth assays were conducted as follows. MCF-7^neo (control cells) or MCF7^EphA2 cells were seeded in 96-well plates. […] Colony formation in soft agar was performed as previously described (Zelinski et al., 2001, Cancer Res. 61: 2301-6) and scored microscopically, defining clusters of at least three cells as a positive. The data represent the average of ten separate high-power microscopic fields from each sample and representative of at least three separate experiments. Error bars represent the standard error of the mean of at least three different experiments as determined using Microsoft Excel software.
Growth MCF-7^EphA2 cells which had decreased EphA2 expression levels was assayed in soft agar.

For a further series, the system named is control MCF-7 cells. Nature of the series: Soft agar colonization of control MCF-7 cells. The class given is cell-based. Particulars: TAM 1 μM; EA2 10 μg/ml; FIG. 13C. The procedure: as §1, with “software. […]” for “software.”
Series [2] deals with MCF-7^EphA2 cells. Nature of the series: Tumorigenic potential of MCF-7^EphA2 vs control cells in mammary fat pad of athymic mice under tamoxifen. The class given is in vivo. Particulars: tamoxifen 1 mg oral gavage 6 days per week, from 17 days post-implantation; supplemental estrogen; FIG. 11B. The procedure:
(B) MCF-7 (circles) or MCF-7^EphA2 cells (squares) were implanted into the mammary fatpad (n=15 mice per group) in the presence of supplemental estrogen. […] Tumor volume of tamoxifen treated (black circles and squares) and saline treated (white circles and squares) animals was measured at the indicated time.
Consistent with increased soft agar colonization, orthotopically implanted MCF-7^EphA2 cells formed larger, more rapidly growing tumors in vivo. Six to eight week-old athymic (nu/nu) mice were purchased from Harlan Sprague Dawley (Indianapolis, Ind.). When indicated, a controlled release estradiol pellet (0.72 mg 17β-estradiol, 60-day formulation) was injected subcutaneously via a sterile 14-gauge trocar 24 hours prior to tumor implantation and pellets were replaced every 60 days for those experiments spanning>60 days in duration. 1×10^6 MCF-7^neo or MCF7^EphA2 cells were injected into the mammary fat pad under direct visualization.

“Also recorded” adds a separate entry of the source.

As to “5′-CCAGCAGTACCGCTTCCTTGCCCTGCGGCCG-3′ (all phosphorothioate, sugars by position and methylation of C not given here; listed as Homo Sapiens) [EphA2 antisense oligonucleotides, phosphorothioate-modified antisense oligonucleotides unique to EphA2]”, the “EphA2 expression / protein level after oligonucleotide transfection” value with EphA2 is “selectively decreased EphA2 expression in MDA-MB-231 cells; also recorded: decreases EphA2 protein levels”. The “Decrease of soft agar colonization vs matched controls” value in the series on MDA-MB-231 cells (2 μg/ml oligonucleotide, 7 days in soft agar, FIG. 14C) was “at least 60%”. Further, the “Colony formation in soft agar vs inverted antisense control” value in the series on MDA-MB-231 cells (P<0.002) is “significantly impaired”.

“5′-GCCGCGTCCCGTTCCTTCACCATGACGACC-3′ (listed as DNA, chemistry not given here; listed as Homo sapiens) [IAS, inverted antisense control oligonucleotide, reference compound]”: the “EphA2 expression / protein level after oligonucleotide transfection” value in the series on EphA2 is recorded as “did not”.

Take `C[C@]12CC[C@@H]3c4ccc(O)cc4CC[C@H]3[C@@H]1CC[C@@H]2O` [estradiol, 17β-estradiol, reference compound]: in the series with MCF-7^EphA2 cells [1] (1 μM 17β-estradiol, FIGS. 11A, 13C (11A also MCF-7)), the “Soft agar colonization response / tamoxifen sensitivity, MCF-7^EphA2 cells” value is recorded as “overcame the inhibitory effects of tamoxifen”.

As to tamoxifen [reference compound], the “Inhibition / decrease of soft agar colonization, MCF-7^EphA2 cells” value in the series on MCF-7^EphA2 cells [1] (14 days) came to 25%. Further, the “Soft agar colonization response, control MCF-7 cells” value in the series with control MCF-7 cells is recorded as “sensitive to tamoxifen”. Further, the “Sensitivity of tumorigenic potential to tamoxifen, MCF-7^EphA2 vs control (MCF-7^neo)” value in the series on MCF-7^EphA2 cells [2] is “less sensitive to tamoxifen; also recorded: lower inhibitory effects of tamoxifen on MCF-7^EphA2 relative to control cells”.
